Experimental data taken from PubChem BioAssay AID1902 (Broad Institute, 2009).
Activity calls are given as the source filed them.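 The calls were made as follows: active = EC50 no more than a set limit of log units above the highest dose; inactive = the rest.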

Biological target: S. pyogenes SKKanGAS, kanamycin survival, BacTiterGlo, 6 h
Assay: SKKanGAS survival reduction under kanamycin, dose response, streptokinase promoter inhibitor project, SKKanGAS strain, luminescence, dose confirmation (AID 1902);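 also: lower survival reflects blocked streptokinase promoter driving kanamycin resistance gene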

Cc1ccccc1C(=O)Nc1scc(-c2ccc(Br)cc2)c1C(=O)O
EC50: 1.82 µM

Cc1nn(-c2nc3ccccc3[nH]2)c(N)c1-c1ccc(Cl)cc1
EC50: 1.53 µM

C[C@H]1[C@H](C)CC[C@]2(C)CC[C@]3(C)C(=CC[C@@H]4[C@@]5(C)CC[C@@H](O)[C@](C)(C(=O)O)[C@@H]5CC[C@]43C)[C@H]12
EC50: 0.997 µM

C/C(N)=C(/C#N)C(=O)CSc1nc2scc(-c3ccccc3)c2c(=O)n1C
EC50: 1.62 µM

c1ccc(CCNc2nc(-c3ccccn3)nc3ccccc23)cc1
EC50: 0.884 µM

CCn1cc(C(=O)O)c(=O)c2cc(F)c(N3CCN(S(=O)(=O)c4ccc(NC(C)=O)cc4)CC3)cc21
EC50: 4.65 µM

CCNC(=O)c1c(NC(=O)c2cc(-c3cc(C)ccc3O)n[nH]2)sc2c1CCCC2
EC50: 2.44 µM

COc1cccc(N2C(=O)C3NN=C(C(=O)CN4C(=O)c5ccccc5C4=O)C3C2=O)c1 (stereo unspecified)
EC50: > 15 µM (inactive)

NC(=O)N=Nc1c2[nH]c3ccccc3nc-2c2ccccc12
EC50: 5.32 µM

CCOc1ccc(C(=O)NC(=S)N(Cc2ccccc2)Cc2ccccc2)cc1
EC50: 1.39 µM

Cc1oc(-c2cc(Cl)cc(Cl)c2)cc1C(=O)NCCc1ccccc1
EC50: 11.7 µM

O=C(O)c1ccc(N/N=C/c2ccc(OC(=O)c3ccccc3Cl)cc2)cc1
EC50: 5.02 µM

Cc1ccc(C23CC4CC(CC(C(=O)N5CCN(C)CC5)(C4)C2)C3)cc1
EC50: > 15 µM (inactive)

O=C(c1cc(-c2ccccc2)nc2ccccc12)N1CCN(c2ccccc2O)CC1
EC50: 6.96 µM

COc1ccc(S(=O)(=O)N2CCOC2CNC(=O)C(=O)NCc2ccccc2Cl)cc1 (stereo unspecified)
EC50: > 15 µM (inactive)

O=C(N/N=C/c1cc(Br)cc([N+](=O)[O-])c1O)c1ccc(NC(=O)c2ccc(F)cc2)cc1
EC50: 4 µM

Cc1[nH]n2c(=O)cc(-c3ccc([N+](=O)[O-])cc3)nc2c1-c1ccccc1
EC50: 0.319 µM

COc1ccc(-n2nc3cc(C)c(NC(=O)C(C)C)cc3n2)cc1
EC50: > 15 µM (inactive)

CCCCCCCCCCCCN1C(=O)CSC1c1cccnc1 (stereo unspecified)
EC50: 5.91 µM

Cc1cccc(/C=c2\s/c(=C\C(=O)C(C)(C)C)[nH]c2=O)c1
EC50: 2.34 µM

Cc1noc(C)c1-c1nnc(-c2ccc(OC(F)(F)F)cc2)o1
EC50: > 15 µM (inactive)

CCOC(=O)c1cnc(-n2nc(C)cc2C)nc1NC1CCCCC1
EC50: < 0.06 µM

CCn1c(NC(=O)c2cccc(Cn3cc(Cl)cn3)c2)nc2ccccc21
EC50: 1.02 µM

FC(F)(F)c1nc(N2CCN(c3ccccc3)CC2)nc2c1CCCCC2
EC50: 2.77 µM

CCOc1cc(/C=N/Nc2cccc(C(=O)O)c2)ccc1OC(=O)c1ccccc1
EC50: 5.18 µM

CCOC(=O)c1c(NC(=O)c2cccs2)sc2c1CCN(C(=O)OCC)C2
EC50: 13 µM

O=C(O)c1ccc(N2C(=O)CC(SC(=NCc3ccc4c(c3)OCO4)Nc3ccc(F)cc3)C2=O)cc1 (stereo unspecified)
EC50: 8.24 µM

O=C(Nc1ccccc1)c1nnsc1S(=O)c1ccc(Cl)cc1 (stereo unspecified)
EC50: 1.34 µM

O=C(Nc1nnc(-c2ccc(Cl)cc2)o1)c1ccccc1Br
EC50: 1.59 µM

COc1cc(/C=N/Nc2nc(Nc3ccccc3)nc(-n3nc(C)cc3C)n2)cc(OC)c1OC
EC50: 3.14 µM

COc1ccc(C(=O)N2CCCC(Nc3ccc(C)c(C)c3)C2)cc1F (stereo unspecified)
EC50: > 15 µM (inactive)

COc1cc(C)c(C(=O)CC(=O)c2c(C)cc(OC)cc2C)c(C)c1
EC50: 1.61 µM

CC1CC(NC(=O)c2c(O)nc3sccn3c2=O)CC(C)(C)C1 (stereo unspecified)
EC50: 7.03 µM

CC(C)(C)c1ccc(OCCCC(=O)NC2=NCCS2)cc1
EC50: 3.87 µM

CCOC(=O)c1sc(N2C(=O)C(O)=C(C(=O)c3ccco3)C2c2cccc(Cl)c2)nc1C (stereo unspecified)
EC50: 5.26 µM

Cc1ccc(C)c(-c2csc(N)c2C(=O)OC(C)C)c1
EC50: 3.11 µM

Oc1cccc2ccc(/C=C/c3cccs3)nc12
EC50: 2.91 µM

Cc1ccc(NC(=O)CN2C(=O)S/C(=C/c3ccc(-c4cc(C(=O)O)ccc4C)o3)C2=O)cc1C
EC50: 2.11 µM

CC(=O)c1ccc(N2CCC(c3cc(-c4ccc(Cl)cc4Cl)n[nH]3)CC2)c([N+](=O)[O-])c1
EC50: 2.15 µM

CCc1ccc(/C=C2\SC(=S)N(CCCC(=O)Nc3ccccc3C(=O)O)C2=O)cc1
EC50: 3.35 µM

CCc1ccc2[nH]c(O)c(N=Nc3nc(-c4ccccc4)cs3)c2c1
EC50: 8.8 µM
